{
  "source": "patent US20070093969A1",
  "about": "“Molecular nephrotoxicology modeling” (priority 2002, published 2007)",
  "key": {"rats [1]": {"tested_on": "rats", "conditions": "rat, in vivo; cited from earlier work"}, "[2]": {"tested_on": "kidney tissue gene expression", "conditions": "rat, in vivo"}, "patients": {"tested_on": "patients", "conditions": "human, in vivo; cited from earlier work"}, "rats [3]": {"tested_on": "rats", "conditions": "cited from earlier work"}, "[4]": {"tested_on": "renal GST-alpha subunit, cytochrome P4502E1", "conditions": "rat, in vivo; cited from earlier work"}},
  "data": [
    {"smiles": "ClC(Cl)(Cl)Cl", "note": "[carbon tetrachloride, Carbon tetrachloride]", "values": [
      {"measurement": "glutathione peroxidase activity", "setting": "rats [1]", "result": "significant decrease"},
      {"measurement": "kidney superoxide dismutase and catalase activities", "setting": "rats [1]", "result": "Significant increases"}
    ]},
    {"smiles": "ClC(Cl)Cl", "note": "[chloroform, Chloroform (CHCl3)]", "values": [
      {"measurement": "Tox Group Mean, GLGC Identifier 1143", "setting": "[2]", "result": 131.83},
      {"measurement": "Tox Group Mean, GLGC Identifier 1409", "setting": "[2]", "result": 298.20},
      {"measurement": "Tox Group Mean, GLGC Identifier 1509", "setting": "[2]", "result": 431.65},
      {"measurement": "Tox Group Mean, GLGC Identifier 1581", "setting": "[2]", "result": 87.66},
      {"measurement": "Tox Group Mean, GLGC Identifier 1644", "setting": "[2]", "result": 418.83},
      {"measurement": "Tox Group Mean, GLGC Identifier 1652", "setting": "[2]", "result": 476.16},
      {"measurement": "Tox Group Mean, GLGC Identifier 1653", "setting": "[2]", "result": 686.13},
      {"measurement": "Tox Group Mean, GLGC Identifier 1877", "setting": "[2]", "result": 444.75},
      {"measurement": "Tox Group Mean, GLGC Identifier 1929", "setting": "[2]", "result": 536.97},
      {"measurement": "Tox Group Mean, GLGC Identifier 1949", "setting": "[2]", "result": 57.75},
      {"measurement": "Tox Group Mean, GLGC Identifier 2059", "setting": "[2]", "result": 219.06},
      {"measurement": "Tox Group Mean, GLGC Identifier 2439", "setting": "[2]", "result": 102.63},
      {"measurement": "Tox Group Mean, GLGC Identifier 2912", "setting": "[2]", "result": 1436.37},
      {"measurement": "Tox Group Mean, GLGC Identifier 3015", "setting": "[2]", "result": 2837.91},
      {"measurement": "Tox Group Mean, GLGC Identifier 3091", "setting": "[2]", "result": 421.64},
      {"measurement": "Tox Group Mean, GLGC Identifier 3803", "setting": "[2]", "result": 975.63},
      {"measurement": "Tox Group Mean, GLGC Identifier 3875", "setting": "[2]", "result": 252.35},
      {"measurement": "Tox Group Mean, GLGC Identifier 4178", "setting": "[2]", "result": 444.39},
      {"measurement": "Tox Group Mean, GLGC Identifier 4462", "setting": "[2]", "result": 414.41},
      {"measurement": "Tox Group Mean, GLGC Identifier 4463", "setting": "[2]", "result": 43.16},
      {"measurement": "Tox Group Mean, GLGC Identifier 4473", "setting": "[2]", "result": 95.76},
      {"measurement": "Tox Group Mean, GLGC Identifier 4933", "setting": "[2]", "result": 743.88},
      {"measurement": "Tox Group Mean, GLGC Identifier 5369", "setting": "[2]", "result": 274.28},
      {"measurement": "Tox Group Mean, GLGC Identifier 6127", "setting": "[2]", "result": 41.36},
      {"measurement": "Tox Group Mean, GLGC Identifier 6343", "setting": "[2]", "result": 46.79},
      {"measurement": "Tox Group Mean, GLGC Identifier 6641", "setting": "[2]", "result": 233.86},
      {"measurement": "Tox Group Mean, GLGC Identifier 7216", "setting": "[2]", "result": 123.29},
      {"measurement": "Tox Group Mean, GLGC Identifier 7299", "setting": "[2]", "result": 334.53},
      {"measurement": "Tox Group Mean, GLGC Identifier 7505", "setting": "[2]", "result": 274.29},
      {"measurement": "Tox Group Mean, GLGC Identifier 7622", "setting": "[2]", "result": 88.74},
      {"measurement": "Tox Group Mean, GLGC Identifier 7634", "setting": "[2]", "result": 538.91},
      {"measurement": "Tox Group Mean, GLGC Identifier 7936", "setting": "[2]", "result": 93.98},
      {"measurement": "Tox Group Mean, GLGC Identifier 8721", "setting": "[2]", "result": 73.87},
      {"measurement": "Tox Group Mean, GLGC Identifier 8829", "setting": "[2]", "result": 505.66},
      {"measurement": "Tox Group Mean, GLGC Identifier 8927", "setting": "[2]", "result": 508.53},
      {"measurement": "Tox Group Mean, GLGC Identifier 8946", "setting": "[2]", "result": 112.12},
      {"measurement": "Tox Group Mean, GLGC Identifier 9116", "setting": "[2]", "result": 269.31},
      {"measurement": "Tox Group Mean, GLGC Identifier 9176", "setting": "[2]", "result": 288.61},
      {"measurement": "Tox Group Mean, GLGC Identifier 9191", "setting": "[2]", "result": 277.28},
      {"measurement": "Tox Group Mean, GLGC Identifier 10130", "setting": "[2]", "result": 117.70},
      {"measurement": "Tox Group Mean, GLGC Identifier 11761", "setting": "[2]", "result": 49.48},
      {"measurement": "Tox Group Mean, GLGC Identifier 11843", "setting": "[2]", "result": 61.43},
      {"measurement": "Tox Group Mean, GLGC Identifier 11953", "setting": "[2]", "result": 1079.47},
      {"measurement": "Tox Group Mean, GLGC Identifier 12129", "setting": "[2]", "result": 245.65},
      {"measurement": "Tox Group Mean, GLGC Identifier 13610", "setting": "[2]", "result": 226.14},
      {"measurement": "Tox Group Mean, GLGC Identifier 13646", "setting": "[2]", "result": 1169.38},
      {"measurement": "Tox Group Mean, GLGC Identifier 13727", "setting": "[2]", "result": 35.36},
      {"measurement": "Tox Group Mean, GLGC Identifier 14267", "setting": "[2]", "result": 1171.51},
      {"measurement": "Tox Group Mean, GLGC Identifier 15072", "setting": "[2]", "result": 42.04},
      {"measurement": "Tox Group Mean, GLGC Identifier 15836", "setting": "[2]", "result": 121.07},
      {"measurement": "Tox Group Mean, GLGC Identifier 15964", "setting": "[2]", "result": 583.51},
      {"measurement": "Tox Group Mean, GLGC Identifier 16468", "setting": "[2]", "result": 831.97},
      {"measurement": "Tox Group Mean, GLGC Identifier 16469", "setting": "[2]", "result": 991.10},
      {"measurement": "Tox Group Mean, GLGC Identifier 16756", "setting": "[2]", "result": 361.18},
      {"measurement": "Tox Group Mean, GLGC Identifier 16948", "setting": "[2]", "result": 145.85},
      {"measurement": "Tox Group Mean, GLGC Identifier 16958", "setting": "[2]", "result": 61.46},
      {"measurement": "Tox Group Mean, GLGC Identifier 17361", "setting": "[2]", "result": 50.93},
      {"measurement": "Tox Group Mean, GLGC Identifier 17516", "setting": "[2]", "result": 500.55},
      {"measurement": "Tox Group Mean, GLGC Identifier 17524", "setting": "[2]", "result": 799.10},
      {"measurement": "Tox Group Mean, GLGC Identifier 17541", "setting": "[2]", "result": 1464.81},
      {"measurement": "Tox Group Mean, GLGC Identifier 18509", "setting": "[2]", "result": 311.54},
      {"measurement": "Tox Group Mean, GLGC Identifier 19110", "setting": "[2]", "result": 84.32},
      {"measurement": "Tox Group Mean, GLGC Identifier 19144", "setting": "[2]", "result": 36.63},
      {"measurement": "Tox Group Mean, GLGC Identifier 19377", "setting": "[2]", "result": 155.74},
      {"measurement": "Tox Group Mean, GLGC Identifier 19679", "setting": "[2]", "result": 440.67},
      {"measurement": "Tox Group Mean, GLGC Identifier 19822", "setting": "[2]", "result": 994.53},
      {"measurement": "Tox Group Mean, GLGC Identifier 20000", "setting": "[2]", "result": 93.69},
      {"measurement": "Tox Group Mean, GLGC Identifier 20582", "setting": "[2]", "result": 347.72},
      {"measurement": "Tox Group Mean, GLGC Identifier 20708", "setting": "[2]", "result": 80.85},
      {"measurement": "Tox Group Mean, GLGC Identifier 20725", "setting": "[2]", "result": 621.86},
      {"measurement": "Tox Group Mean, GLGC Identifier 20741", "setting": "[2]", "result": 236.26},
      {"measurement": "Tox Group Mean, GLGC Identifier 21025", "setting": "[2]", "result": 233.83},
      {"measurement": "Tox Group Mean, GLGC Identifier 21060", "setting": "[2]", "result": 133.69},
      {"measurement": "Tox Group Mean, GLGC Identifier 21061", "setting": "[2]", "result": 86.99},
      {"measurement": "Tox Group Mean, GLGC Identifier 21088", "setting": "[2]", "result": 56.92},
      {"measurement": "Tox Group Mean, GLGC Identifier 21562", "setting": "[2]", "result": 265.87},
      {"measurement": "Tox Group Mean, GLGC Identifier 22490", "setting": "[2]", "result": 811.57},
      {"measurement": "Tox Group Mean, GLGC Identifier 22537", "setting": "[2]", "result": 145.19},
      {"measurement": "Tox Group Mean, GLGC Identifier 22648", "setting": "[2]", "result": 313.31},
      {"measurement": "Tox Group Mean, GLGC Identifier 22783", "setting": "[2]", "result": 473.86},
      {"measurement": "Tox Group Mean, GLGC Identifier 22855", "setting": "[2]", "result": 373.13},
      {"measurement": "Tox Group Mean, GLGC Identifier 22985", "setting": "[2]", "result": 83.55},
      {"measurement": "Tox Group Mean, GLGC Identifier 23033", "setting": "[2]", "result": 431.39},
      {"measurement": "Tox Group Mean, GLGC Identifier 23115", "setting": "[2]", "result": 278.57},
      {"measurement": "Tox Group Mean, GLGC Identifier 23282", "setting": "[2]", "result": 425.15},
      {"measurement": "Tox Group Mean, GLGC Identifier 23718", "setting": "[2]", "result": 65.41},
      {"measurement": "Tox Group Mean, GLGC Identifier 24234", "setting": "[2]", "result": 408.25},
      {"measurement": "Tox Group Mean, GLGC Identifier 24437", "setting": "[2]", "result": 56.38},
      {"measurement": "Tox Group Mean, GLGC Identifier 25168", "setting": "[2]", "result": 32.68},
      {"measurement": "Tox Group Mean, GLGC Identifier 25643", "setting": "[2]", "result": 187.37},
      {"measurement": "Tox Group Mean, GLGC Identifier 25777", "setting": "[2]", "result": 1173.74},
      {"measurement": "Tox Group Mean, GLGC Identifier 25862", "setting": "[2]", "result": 38.61},
      {"measurement": "Tox Group Mean, GLGC Identifier 25921", "setting": "[2]", "result": 47.30},
      {"measurement": "Tox Group Mean, GLGC Identifier 26183", "setting": "[2]", "result": 64.68}
    ]},
    {"smiles": "Nc1ccn(C[C@@H](CO)OCP(=O)(O)O)c(=O)n1", "note": "[cidofovir, Cidofovir]", "values": [
      {"measurement": "patients with dose-dependent asymptomatic proteinuria", "setting": "patients", "result": "Approximately 40%"},
      {"measurement": "patients with elevated serum creatinine levels", "setting": "patients", "result": 25, "unit": "%"}
    ]},
    {"smiles": "NNc1nncc2ccccc12", "note": "[hydralazine, Hydralazine]", "values": [
      {"measurement": "kidney copper concentrations", "setting": "rats [3]; compared to control groups", "result": "increased"},
      {"measurement": "manganese and zinc concentrations", "setting": "rats [3]; rat, in vivo", "result": "not effected"},
      {"measurement": "renal GST-alpha subunit expression", "setting": "[4]", "result": "increase"},
      {"measurement": "renal cytochrome P4502E1 expression", "setting": "[4]", "result": "did not alter"}
    ]}
  ]
}
